Five molecules from ChEMBL document CHEMBL3271999, “Antimycotic imidazoles. 2. Synthesis and antimycotic properties of 1-[2-(arylalkyl)-2-phenylethyl]-1H-imidazoles” (1977) can be followed below.

Assay [1] has as its system Trichophyton mentagrophytes. The assay can be described thus: Antifungal activity against Trichophyton mentagrophytes assessed as lowest dose level for total inhibition of fungal growth. The class given is functional.
The next assay deals with Mucor. The assay can be described thus: Antifungal activity against Mucor species assessed as lowest dose level for total inhibition of fungal growth. It counts as functional.
Assay [2] has as its system Candida albicans. The assay can be described thus: In vivo antifungal activity against Candida albicans topically infected in guinea pig assessed as animal cured at 10 mg/kg, po. The class given is functional, organism-based. The arrangement: dose 10 mg/kg.
The test system of a further assay is Phialophora verrucosa. Nature of the assay: Antifungal activity against Phialophora verrucosa assessed as lowest dose level for total inhibition of fungal growth. The class given is functional.
The next assay relates to Sporothrix schenckii. The assay can be described thus: Antifungal activity against Sporothrix schenckii assessed as lowest dose level for total inhibition of fungal growth. The class given is functional.
Assay [3] has as its system Erysipelothrix rhusiopathiae. The assay can be described thus: Antibacterial activity against Erysipelothrix insidiosa assessed as lowest dose level for total inhibition of bacterial growth. The class given is functional.
In the next assay the test system is Saprolegnia. The assay can be described thus: Antifungal activity against Saprolegnia species assessed as lowest dose level for total inhibition of fungal growth. The class given is functional.
The test system of a further assay is Cryptococcus neoformans. The assay can be described thus: Antifungal activity against Cryptococcus neoformans assessed as lowest dose level for total inhibition of fungal growth. The class given is functional.
The next assay relates to Trichophyton rubrum. The assay can be described thus: Antifungal activity against Trichophyton rubrum assessed as lowest dose level for total inhibition of fungal growth. It counts as functional.
Assay [4] has as its system Candida albicans. Nature of the assay: Antifungal activity against Candida albicans assessed as lowest dose level for total inhibition of fungal growth. The class given is functional.
The test system of assay [5] is Staphylococcus haemolyticus. Nature of the assay: Antibacterial activity against Staphylococcus haemolyticus assessed as lowest dose level for total inhibition of bacterial growth. It counts as functional.
The subject of the next assay is Aspergillus fumigatus. Nature of the assay: Antifungal activity against Aspergillus fumigatus assessed as lowest dose level for total inhibition of fungal growth. The class given is functional.
The next assay concerns Streptococcus pyogenes. Nature of the assay: Antibacterial activity against Streptococcus pyogenes assessed as lowest dose level for total inhibition of bacterial growth. The class given is functional.
The next assay relates to Candida tropicalis. The assay can be described thus: Antifungal activity against Candida tropicalis assessed as lowest dose level for total inhibition of fungal growth. It counts as functional.
The next assay relates to Microsporum canis. The assay can be described thus: Antifungal activity against Microsporum canis assessed as lowest dose level for total inhibition of fungal growth. It counts as functional.

The structures appear in SMILES notation. Calls of active or inactive are those of the source. The rule behind the calls is not given here. A value given as a limit tells only on which side of the number the result lay.

For `Clc1ccc(CC(Cn2ccnc2)c2ccccc2Cl)c(Cl)c1.O=[N+]([O-])O` (stereo not given), the Activity in [1] was less than 1 µg/mL; in the assay with Mucor it was 100 µg/mL; in the assay with Phialophora verrucosa, 100 µg/mL; in the assay on Sporothrix schenckii, 10 µg/mL; in [3] it was 10 µg/mL; in the assay on Saprolegnia it was 100 µg/mL. The Activity with Cryptococcus neoformans is less than 1 µg/mL; with Trichophyton rubrum, less than 1 µg/mL; with Candida albicans [4] it was 100 µg/mL; in [5], 100 µg/mL; in the assay on Aspergillus fumigatus, 100 µg/mL; in the assay on Streptococcus pyogenes, less than 1 µg/mL. The Activity in the assay with Candida tropicalis was more than 100 µg/mL; with Microsporum canis, 10 µg/mL. In addition, the result in the assay on Candida albicans [2] was inactive.

As to `COc1ccc(CCC(Cn2ccnc2)c2ccc(Cl)cc2Cl)cc1.O=[N+]([O-])O` (stereo not given), the Activity in [1] is less than 1 µg/mL; in the assay with Mucor, 100 µg/mL; with Phialophora verrucosa it was 10 µg/mL; in the assay on Sporothrix schenckii it was 10 µg/mL; in assay [3], less than 1 µg/mL; with Saprolegnia, 10 µg/mL. Also, the Activity is less than 1 µg/mL in the assay with Cryptococcus neoformans; less than 1 µg/mL in the assay with Trichophyton rubrum; more than 100 µg/mL in the assay on Candida albicans [4]; 1 µg/mL in [5]; 100 µg/mL with Aspergillus fumigatus; less than 1 µg/mL in the assay on Streptococcus pyogenes. In addition, the Activity in the assay on Candida tropicalis was more than 100 µg/mL; with Microsporum canis it was 10 µg/mL. Also, the outcome with Candida albicans [2] was inactive.

On to `Clc1ccc(CC(Cn2ccnc2)c2c(Cl)cccc2Cl)c(Cl)c1.O=[N+]([O-])O` (stereo not given), for which the Activity was 10 µg/mL in assay [1]; 100 µg/mL with Mucor; more than 100 µg/mL in the assay with Phialophora verrucosa; 10 µg/mL with Sporothrix schenckii; 1 µg/mL in assay [3]; 100 µg/mL in the assay with Saprolegnia. For the same molecule, the Activity is 10 µg/mL in the assay with Cryptococcus neoformans; less than 1 µg/mL in the assay with Trichophyton rubrum; more than 100 µg/mL with Candida albicans [4]; 10 µg/mL in assay [5]; 100 µg/mL with Aspergillus fumigatus; less than 1 µg/mL in the assay with Streptococcus pyogenes. Moreover, the figures for the Activity in the assay with Candida tropicalis and in the assay on Microsporum canis were more than 100 µg/mL and 10 µg/mL, respectively. For the same molecule, the result in the assay on Candida albicans [2] was inactive.

As to `Clc1ccc(CCC(Cn2ccnc2)c2ccc(Cl)cc2Cl)c(Cl)c1.O=[N+]([O-])O` (stereo not given), the Activity was less than 1 µg/mL in assay [1]; more than 100 µg/mL in the assay on Mucor; more than 100 µg/mL with Phialophora verrucosa; 10 µg/mL with Sporothrix schenckii; less than 1 µg/mL in assay [3]; 100 µg/mL with Saprolegnia. Besides, the Activity was less than 1 µg/mL with Cryptococcus neoformans; less than 1 µg/mL in the assay on Trichophyton rubrum; more than 100 µg/mL with Candida albicans [4]; 100 µg/mL in assay [5]; 100 µg/mL in the assay on Aspergillus fumigatus; less than 1 µg/mL in the assay with Streptococcus pyogenes. For the same molecule, the results for the Activity in the assay with Candida tropicalis and in the assay on Microsporum canis were more than 100 µg/mL and 10 µg/mL, respectively. In addition, the result in the assay on Candida albicans [2] was inactive.

Regarding `Clc1ccc(CC(Cn2ccnc2)c2ccc(Cl)cc2Cl)c(Cl)c1.O=[N+]([O-])O` (stereo not given), the Activity was less than 1 µg/mL in [1]; 100 µg/mL with Mucor; 100 µg/mL in the assay on Phialophora verrucosa; less than 1 µg/mL with Sporothrix schenckii; less than 1 µg/mL in assay [3]; 100 µg/mL in the assay with Saprolegnia. Besides, the Activity is less than 1 µg/mL with Cryptococcus neoformans; less than 1 µg/mL with Trichophyton rubrum; 10 µg/mL in the assay with Candida albicans [4]; 10 µg/mL in [5]; 100 µg/mL with Aspergillus fumigatus; less than 1 µg/mL in the assay on Streptococcus pyogenes. The Activity in the assay on Candida tropicalis and in the assay on Microsporum canis was 10 µg/mL each time. Further, in the assay on Candida albicans [2], the outcome was inactive.
